Read-outs that look alike come from different tables or passages of the source.
What was measured:
[1] = biological target: DDR1 (Homo sapiens, UniProt Q08345); assay: HotSpot in vitro kinase radiometric assay; type: biochemical; set-up: purchased Reaction Biology (HotSpot contract assay)
[2] = test system: TRAP1; set-up: method as in ChEMBL23 (accessed: 23/08/2018); conditions: average of reported values; ref ChEMBL23 (accessed: 23/08/2018); cited from earlier work
[3] = test system: 16-kinase panel; assay: 16-kinase panel screening, in vitro radiometric assay; type: biochemical, human; conditions: 10 μM
[4] = biological target: T1, LCK (Homo sapiens, UniProt P06239); assay: HotSpot in vitro kinase radiometric assay; type: biochemical; conditions: 10uM, ATP 15 uM, Data 1, Data 2
T1 construct: purchased Reaction Biology (HotSpot contract assay)

[5] = biological target: ABL1 (Homo sapiens, UniProt P00519); assay: HotSpot in vitro kinase radiometric assay; type: biochemical; set-up: purchased Reaction Biology (HotSpot contract assay); conditions: 10uM, ATP 40 uM, Data 1, Data 2
ABL1, sequence (P00519 whole entry): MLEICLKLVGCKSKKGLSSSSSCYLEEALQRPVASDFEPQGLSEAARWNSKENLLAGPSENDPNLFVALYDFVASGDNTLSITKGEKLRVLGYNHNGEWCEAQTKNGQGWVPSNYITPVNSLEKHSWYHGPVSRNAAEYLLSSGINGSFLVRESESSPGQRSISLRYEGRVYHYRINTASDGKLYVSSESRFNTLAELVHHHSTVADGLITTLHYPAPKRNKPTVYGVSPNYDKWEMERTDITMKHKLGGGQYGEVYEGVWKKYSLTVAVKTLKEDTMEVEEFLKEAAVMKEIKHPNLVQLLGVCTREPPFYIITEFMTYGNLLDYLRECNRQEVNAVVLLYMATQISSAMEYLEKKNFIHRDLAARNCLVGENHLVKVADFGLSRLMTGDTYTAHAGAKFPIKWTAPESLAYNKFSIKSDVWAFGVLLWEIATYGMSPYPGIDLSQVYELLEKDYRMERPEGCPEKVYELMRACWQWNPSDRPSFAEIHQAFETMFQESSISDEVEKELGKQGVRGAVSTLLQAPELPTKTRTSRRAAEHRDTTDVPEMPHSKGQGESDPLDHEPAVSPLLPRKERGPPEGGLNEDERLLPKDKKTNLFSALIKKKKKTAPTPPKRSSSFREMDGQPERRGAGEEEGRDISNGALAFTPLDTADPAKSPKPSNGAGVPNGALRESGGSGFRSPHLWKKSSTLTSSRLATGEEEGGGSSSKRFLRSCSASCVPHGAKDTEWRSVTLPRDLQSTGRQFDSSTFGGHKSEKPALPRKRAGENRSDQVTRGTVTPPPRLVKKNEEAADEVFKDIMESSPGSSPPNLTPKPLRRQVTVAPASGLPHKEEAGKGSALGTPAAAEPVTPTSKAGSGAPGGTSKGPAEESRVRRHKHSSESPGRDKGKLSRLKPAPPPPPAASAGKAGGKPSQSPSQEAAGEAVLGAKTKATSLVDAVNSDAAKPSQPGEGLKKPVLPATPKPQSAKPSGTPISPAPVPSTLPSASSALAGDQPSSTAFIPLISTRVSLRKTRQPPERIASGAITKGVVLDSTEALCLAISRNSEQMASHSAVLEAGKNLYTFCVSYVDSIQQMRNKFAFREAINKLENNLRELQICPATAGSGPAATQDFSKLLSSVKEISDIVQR

[6] = biological target: T2, TRKC (Homo sapiens, UniProt Q16288); assay: HotSpot in vitro kinase radiometric assay; type: biochemical; conditions: 10uM, ATP 100 uM, Data 1, Data 2
T2 construct: purchased Reaction Biology (HotSpot contract assay)

[7] = biological target: T3, PEAK1 (Homo sapiens, UniProt Q9H792); assay: HotSpot in vitro kinase radiometric assay; type: biochemical; conditions: 10uM, ATP 30 uM, Data 1, Data 2
T3 construct: purchased Reaction Biology (HotSpot contract assay)

[8] = biological target: T4, LYN B (Homo sapiens, UniProt P07948); assay: HotSpot in vitro kinase radiometric assay; type: biochemical; conditions: 10uM, ATP 20 uM, Data 1, Data 2
T4 construct: purchased Reaction Biology (HotSpot contract assay)
T4 sequence (P07948 1-491 isoform P07948-2): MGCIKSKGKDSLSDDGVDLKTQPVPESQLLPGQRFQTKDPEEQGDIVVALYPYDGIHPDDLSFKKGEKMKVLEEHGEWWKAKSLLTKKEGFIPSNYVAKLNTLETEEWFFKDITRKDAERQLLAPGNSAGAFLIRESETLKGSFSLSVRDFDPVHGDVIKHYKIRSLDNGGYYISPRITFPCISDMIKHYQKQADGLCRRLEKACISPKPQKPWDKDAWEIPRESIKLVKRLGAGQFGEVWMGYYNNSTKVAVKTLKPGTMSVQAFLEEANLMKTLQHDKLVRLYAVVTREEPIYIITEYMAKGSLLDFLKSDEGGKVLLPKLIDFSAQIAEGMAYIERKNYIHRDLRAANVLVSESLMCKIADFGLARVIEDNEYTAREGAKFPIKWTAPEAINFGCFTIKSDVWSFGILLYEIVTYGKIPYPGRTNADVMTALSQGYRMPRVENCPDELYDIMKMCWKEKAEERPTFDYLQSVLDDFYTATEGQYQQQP
Experimental: (§1) Accordingly, we selected five additional representative HSP90 inhibitors, at least one from each chemical class, including both synthetic inhibitors and natural products. […]
(§2) This radioisotope binding assay was designed to directly detect the true product without the use of modified substrates, coupling enzymes, or detection antibodies thus enabling to directly measure inhibition of catalytic activity. Test or control compounds were incubated with kinase, substrate, cofactors, and radioisotope-labeled ATP (32P-ɣ-ATP or 33P-ɣ-ATP). The reaction mixtures were then spotted onto filter papers, which bind the radioisotope-labeled catalytic product.

[9] = biological target: T5, c-Src (Homo sapiens, UniProt P12931); assay: HotSpot in vitro kinase radiometric assay; type: biochemical; conditions: 10uM, ATP 15 uM, Data 1, Data 2
T5 construct: purchased Reaction Biology (HotSpot contract assay)
Experimental: as §1, §2

[10] = biological target: T6, PDK4/PDKH4 (Homo sapiens, UniProt Q16654); assay: HotSpot in vitro kinase radiometric assay; type: biochemical; conditions: 10uM, ATP 30 uM, Data 1, Data 2
T6 construct: purchased Reaction Biology (HotSpot contract assay)
Experimental: as §1, §2

[11] = biological target: T7, BLK (Homo sapiens, UniProt P51451); assay: HotSpot in vitro kinase radiometric assay; type: biochemical; conditions: 10uM, ATP 10 uM, Data 1, Data 2
T7 construct: purchased Reaction Biology (HotSpot contract assay)
T7 sequence (P51451 whole entry): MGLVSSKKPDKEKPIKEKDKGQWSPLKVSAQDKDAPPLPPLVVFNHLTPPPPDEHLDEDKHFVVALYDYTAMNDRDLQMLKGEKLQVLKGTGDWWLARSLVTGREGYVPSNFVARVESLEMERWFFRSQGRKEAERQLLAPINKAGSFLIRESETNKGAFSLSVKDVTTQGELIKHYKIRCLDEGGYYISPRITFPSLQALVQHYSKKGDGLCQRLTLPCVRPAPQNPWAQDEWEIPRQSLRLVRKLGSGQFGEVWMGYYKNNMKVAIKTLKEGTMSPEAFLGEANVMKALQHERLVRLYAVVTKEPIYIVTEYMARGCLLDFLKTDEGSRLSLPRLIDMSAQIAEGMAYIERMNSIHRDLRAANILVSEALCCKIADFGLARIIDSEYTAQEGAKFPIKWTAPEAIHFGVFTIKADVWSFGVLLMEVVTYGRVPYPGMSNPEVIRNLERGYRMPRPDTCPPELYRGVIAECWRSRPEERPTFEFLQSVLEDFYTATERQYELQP
Experimental: as §1, §2

[12] = biological target: T8, TRKA (Homo sapiens, UniProt P04629); assay: HotSpot in vitro kinase radiometric assay; type: biochemical; conditions: 10uM, ATP 100 uM, Data 1, Data 2
T8 construct: purchased Reaction Biology (HotSpot contract assay)
Excerpt: (§3) Accordingly, we selected five additional representative HSP90 inhibitors, at least one from each chemical class, including both synthetic inhibitors and natural products.
(§4) Accordingly, we screened the hit compound and the two leads for kinase off-target inhibition using the 16-kinase panel and the same in vitro catalytic assay used previously.
as §2

[13] = biological target: T9, PASK (Homo sapiens, UniProt Q96RG2); assay: HotSpot in vitro kinase radiometric assay; type: biochemical; conditions: 10uM, ATP 50 uM, Data 1, Data 2
T9 construct: purchased Reaction Biology (HotSpot contract assay)
Excerpt: as §3, §4, §2

[14] = test system: 382 unique human kinases; assay: biochemical; type: biochemical; conditions: cutoff of >85% inhibition at 10 μM; luminespib and ganetespib large kinome panel, others 16-kinase panel
[15] = biological target: T10, ABL2/ARG (Homo sapiens, UniProt P42684); assay: HotSpot in vitro kinase radiometric assay; type: biochemical; conditions: 10uM, ATP 30 uM, Data 1, Data 2
T10 construct: purchased Reaction Biology (HotSpot contract assay)
T10 sequence (P42684 whole entry): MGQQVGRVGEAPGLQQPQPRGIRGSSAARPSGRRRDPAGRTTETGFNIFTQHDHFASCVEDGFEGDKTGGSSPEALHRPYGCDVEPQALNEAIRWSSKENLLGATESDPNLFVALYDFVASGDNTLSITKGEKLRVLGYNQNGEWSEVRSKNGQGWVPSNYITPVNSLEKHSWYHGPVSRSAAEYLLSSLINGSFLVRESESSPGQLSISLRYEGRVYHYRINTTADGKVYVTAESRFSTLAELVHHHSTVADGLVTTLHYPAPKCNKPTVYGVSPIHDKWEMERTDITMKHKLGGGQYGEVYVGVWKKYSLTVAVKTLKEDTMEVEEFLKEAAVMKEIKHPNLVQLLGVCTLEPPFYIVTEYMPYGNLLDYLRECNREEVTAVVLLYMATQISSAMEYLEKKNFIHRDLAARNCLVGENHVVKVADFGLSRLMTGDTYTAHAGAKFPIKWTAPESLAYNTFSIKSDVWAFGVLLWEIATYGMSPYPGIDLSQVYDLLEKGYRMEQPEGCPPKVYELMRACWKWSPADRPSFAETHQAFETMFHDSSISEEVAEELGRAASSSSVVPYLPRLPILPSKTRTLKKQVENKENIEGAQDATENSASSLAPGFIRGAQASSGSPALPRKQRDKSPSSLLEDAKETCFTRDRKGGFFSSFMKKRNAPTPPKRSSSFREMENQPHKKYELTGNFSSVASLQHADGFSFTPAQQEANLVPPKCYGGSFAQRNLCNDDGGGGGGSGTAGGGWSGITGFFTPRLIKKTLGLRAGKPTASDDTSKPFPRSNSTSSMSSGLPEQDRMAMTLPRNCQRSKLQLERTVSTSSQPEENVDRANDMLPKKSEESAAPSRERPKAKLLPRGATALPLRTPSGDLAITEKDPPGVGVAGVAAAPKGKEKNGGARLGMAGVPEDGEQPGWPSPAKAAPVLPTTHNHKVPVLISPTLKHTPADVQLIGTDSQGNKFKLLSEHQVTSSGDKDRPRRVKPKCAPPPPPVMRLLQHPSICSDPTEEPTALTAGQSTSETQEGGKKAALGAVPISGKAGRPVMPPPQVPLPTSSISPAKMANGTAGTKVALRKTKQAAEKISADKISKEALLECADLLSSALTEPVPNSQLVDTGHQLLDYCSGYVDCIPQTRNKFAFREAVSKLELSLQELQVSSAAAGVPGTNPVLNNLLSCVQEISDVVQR

[16] = test system: HSP90AB1; set-up: method as in ChEMBL23 (accessed: 23/08/2018); conditions: average of reported values; ref ChEMBL23 (accessed: 23/08/2018); cited from earlier work
[17] = biological target: T11, FGR (Homo sapiens, UniProt P09769); assay: HotSpot in vitro kinase radiometric assay; type: biochemical; conditions: 10uM, ATP 50 uM, Data 1, Data 2
T11 construct: purchased Reaction Biology (HotSpot contract assay)

[18] = biological target: T12, FYN (Homo sapiens, UniProt P06241); assay: HotSpot in vitro kinase radiometric assay; type: biochemical; conditions: 10uM, ATP 30 uM, Data 1, Data 2
T12 construct: purchased Reaction Biology (HotSpot contract assay)

[19] = biological target: T13, YES/YES1 (Homo sapiens, UniProt P07947); assay: HotSpot in vitro kinase radiometric assay; type: biochemical; conditions: 10uM, ATP 50 uM, Data 1, Data 2
T13 construct: purchased Reaction Biology (HotSpot contract assay)
T13 sequence (P07947 whole entry): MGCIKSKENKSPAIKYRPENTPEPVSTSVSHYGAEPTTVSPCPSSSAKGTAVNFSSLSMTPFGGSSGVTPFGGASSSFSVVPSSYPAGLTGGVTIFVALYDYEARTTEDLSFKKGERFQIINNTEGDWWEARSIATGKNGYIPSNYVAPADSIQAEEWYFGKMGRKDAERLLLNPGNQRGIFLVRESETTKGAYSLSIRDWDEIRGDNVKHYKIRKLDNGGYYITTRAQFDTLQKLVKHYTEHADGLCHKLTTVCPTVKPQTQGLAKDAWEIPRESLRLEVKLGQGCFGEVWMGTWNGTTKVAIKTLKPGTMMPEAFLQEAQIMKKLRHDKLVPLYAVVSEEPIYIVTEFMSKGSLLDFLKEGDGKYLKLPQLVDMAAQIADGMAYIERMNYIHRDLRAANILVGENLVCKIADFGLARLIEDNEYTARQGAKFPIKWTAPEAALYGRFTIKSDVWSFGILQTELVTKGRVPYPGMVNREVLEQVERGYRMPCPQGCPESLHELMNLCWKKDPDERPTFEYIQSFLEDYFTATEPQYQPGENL

[20] = biological target: T14, PDK2/PDHK2 (Homo sapiens, UniProt Q15119); assay: HotSpot in vitro kinase radiometric assay; type: biochemical; conditions: PDK2/PDHK2, 10uM, ATP 15 uM, Data 1, Data 2
T14 construct: purchased Reaction Biology (HotSpot contract assay)
Experimental: as §1, §2

[21] = DDR1, 10uM, ATP 100 uM, Data 1, Data 2, read-out: % Enzyme Activity (relative to DMSO controls)
[22] = LCK, read-out: % Enzyme Activity (relative to DMSO controls)
[23] = ABL1, read-out: % Enzyme Activity (relative to DMSO controls)
[24] = TRKC, read-out: % Enzyme Activity (relative to DMSO controls)
[25] = PEAK1, read-out: % Enzyme Activity (relative to DMSO controls)
[26] = LYN B, read-out: % Enzyme Activity (relative to DMSO controls)
[27] = c-Src, read-out: % Enzyme Activity (relative to DMSO controls)
[28] = PDK4/PDKH4, read-out: % Enzyme Activity (relative to DMSO controls)
[29] = BLK, read-out: % Enzyme Activity (relative to DMSO controls)
[30] = TRKA, read-out: % Enzyme Activity (relative to DMSO controls)
[31] = PASK, read-out: % Enzyme Activity (relative to DMSO controls)
[32] = ABL2/ARG, read-out: % Enzyme Activity (relative to DMSO controls)
[33] = FGR, read-out: % Enzyme Activity (relative to DMSO controls)
[34] = FYN, read-out: % Enzyme Activity (relative to DMSO controls)
[35] = YES/YES1, read-out: % Enzyme Activity (relative to DMSO controls)

DDR1, sequence (Q08345 19-913): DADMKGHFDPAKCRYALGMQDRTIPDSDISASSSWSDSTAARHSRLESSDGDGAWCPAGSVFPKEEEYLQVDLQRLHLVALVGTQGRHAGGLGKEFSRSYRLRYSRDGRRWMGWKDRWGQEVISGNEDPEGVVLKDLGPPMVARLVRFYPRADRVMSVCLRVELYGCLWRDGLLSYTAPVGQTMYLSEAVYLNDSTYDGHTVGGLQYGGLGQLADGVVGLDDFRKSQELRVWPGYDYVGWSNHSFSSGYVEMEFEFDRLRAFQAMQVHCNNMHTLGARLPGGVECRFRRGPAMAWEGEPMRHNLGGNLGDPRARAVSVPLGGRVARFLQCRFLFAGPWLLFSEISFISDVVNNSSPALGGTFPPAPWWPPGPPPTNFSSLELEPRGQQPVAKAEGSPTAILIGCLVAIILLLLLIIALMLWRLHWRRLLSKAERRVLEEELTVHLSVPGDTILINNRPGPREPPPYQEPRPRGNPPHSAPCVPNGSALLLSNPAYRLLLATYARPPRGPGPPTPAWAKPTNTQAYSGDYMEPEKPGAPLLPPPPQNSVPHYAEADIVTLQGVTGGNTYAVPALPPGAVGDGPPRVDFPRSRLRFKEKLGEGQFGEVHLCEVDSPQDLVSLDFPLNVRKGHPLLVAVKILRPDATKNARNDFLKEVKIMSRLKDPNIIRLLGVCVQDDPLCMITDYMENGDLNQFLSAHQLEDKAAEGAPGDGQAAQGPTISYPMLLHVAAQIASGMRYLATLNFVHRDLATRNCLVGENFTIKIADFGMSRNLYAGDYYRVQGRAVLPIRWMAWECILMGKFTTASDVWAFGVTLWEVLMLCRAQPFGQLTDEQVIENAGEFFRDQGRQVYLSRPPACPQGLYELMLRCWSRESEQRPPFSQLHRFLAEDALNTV

CC1(C)CC(=O)c2c(C(F)(F)F)nn(-c3ccc(C(N)=O)c(N[C@H]4CC[C@H](O)CC4)c3)c2C1 [SNX-2112]
remaining activity at 10 µM ([1]; read-out: % Enzyme Activity (relative to DMSO controls), DDR1, 10uM, ATP 100 uM, Data 1, Data 2): 93.4%
pActivity, TRAP1 [2]: 6.12
activity against the 16-kinase panel [3]: inactive
remaining activity at 10 µM ([4]; read-out: % Enzyme Activity (relative to DMSO controls), LCK): 114%
remaining activity at 10 µM ([5]; read-out: % Enzyme Activity (relative to DMSO controls), ABL1): 109%
remaining activity at 10 µM ([6]; read-out: % Enzyme Activity (relative to DMSO controls), TRKC): 93%
remaining activity at 10 µM ([7]; read-out: % Enzyme Activity (relative to DMSO controls), PEAK1): 105%
remaining activity at 10 µM ([8]; read-out: % Enzyme Activity (relative to DMSO controls), LYN B): 107%
remaining activity at 10 µM ([9]; read-out: % Enzyme Activity (relative to DMSO controls), c-Src): 99%
remaining activity at 10 µM ([10]; read-out: % Enzyme Activity (relative to DMSO controls), PDK4/PDKH4): 94.8%
remaining activity at 10 µM ([11]; read-out: % Enzyme Activity (relative to DMSO controls), BLK): 116%
remaining activity at 10 µM ([12]; read-out: % Enzyme Activity (relative to DMSO controls), TRKA): 107%
remaining activity at 10 µM ([13]; read-out: % Enzyme Activity (relative to DMSO controls), PASK): 101%
number of off-target kinases experimentally identified, In vitro binding (KinomeSCAN) [14]: 0
remaining activity at 10 µM ([15]; read-out: % Enzyme Activity (relative to DMSO controls), ABL2/ARG): 114%
pActivity, HSP90AB1 [16]: 8.34
remaining activity at 10 µM ([17]; read-out: % Enzyme Activity (relative to DMSO controls), FGR): 111%
remaining activity at 10 µM ([18]; read-out: % Enzyme Activity (relative to DMSO controls), FYN): 113%
remaining activity at 10 µM ([19]; read-out: % Enzyme Activity (relative to DMSO controls), YES/YES1): 101%

CN[C@@H]1C[C@H]2O[C@@](C)([C@@H]1OC)n1c3ccccc3c3c4c(c5c6ccccc6n2c5c31)C(=O)NC4 [Staurosporine]
DDR1 - % activty [1]: 87.08%
HILLSLOPE ([1]; DDR1, single replicate curves): -1.76
DDR1 - % activty ([1]; Stauro Conc. 1.25E-06 M): 0.78%
DDR1 - % activty ([1]; Stauro Conc. 1.95E-08 M): 5.70%
DDR1 - % activty ([1]; Stauro Conc. 2.00E-05 M): -0.41%
DDR1 - % activty ([1]; Stauro Conc. 3.05E-10 M): 101.08%
DDR1 - % activty ([1]; Stauro Conc. 4.88E-09 M): 36.56%
DDR1 - % activty ([1]; Stauro Conc. 7.63E-11 M): 100.44%
DDR1 - % activty ([1]; Stauro Conc. 7.81E-08 M): 1.19%

COC1=C2C[C@@H](C)C[C@H](OC)[C@H](O)[C@@H](C)/C=C(\C)[C@H](OC(N)=O)[C@@H](OC)/C=C\C=C(/C)C(=O)NC(=CC1=O)C2=O [Geldanamycin]
remaining activity at 10 µM [1, 21]: 104%
pActivity, TRAP1 [2]: 6.18
activity against the 16-kinase panel [3]: inactive
remaining activity at 10 µM [4, 22]: 125%
remaining activity at 10 µM [5, 23]: 100%
remaining activity at 10 µM [6, 24]: 99.5%
remaining activity at 10 µM [7, 25]: 108%
remaining activity at 10 µM [8, 26]: 111%
remaining activity at 10 µM [9, 27]: 110%
remaining activity at 10 µM [10, 28]: 100%
remaining activity at 10 µM [11, 29]: 121%
remaining activity at 10 µM [12, 30]: 104%
remaining activity at 10 µM [13, 31]: 106%
remaining activity at 10 µM [15, 32]: 115%
pActivity, HSP90AB1 [16]: 6.99
remaining activity at 10 µM [17, 33]: 113%
remaining activity at 10 µM [18, 34]: 121%
remaining activity at 10 µM [19, 35]: 103%

CC(C)c1cc(C(=O)N2Cc3ccc(CN4CCN(C)CC4)cc3C2)c(O)cc1O [Onalespib]
% Enzyme Activity (relative to DMSO controls) ([1]; DDR1, 10uM, ATP 100 uM, Data 1, Data 2): 87.99%
remaining activity at 10 µM [1, 21]: 106%
activity against the 16-kinase panel [3]: inactive
% Enzyme Activity (relative to DMSO controls) ([4]; LCK): 100%
remaining activity at 10 µM [4, 22]: 100%
% Enzyme Activity (relative to DMSO controls) ([5]; ABL1): 103.3%
remaining activity at 10 µM [5, 23]: 105%
% Enzyme Activity (relative to DMSO controls) ([6]; TRKC): 89.51%
remaining activity at 10 µM [6, 24]: 93%
% Enzyme Activity (relative to DMSO controls) ([7]; PEAK1): 102.81%
remaining activity at 10 µM [7, 25]: 104%
% Enzyme Activity (relative to DMSO controls) ([8]; LYN B): 109.85%
remaining activity at 10 µM [8, 26]: 110%
% Enzyme Activity (relative to DMSO controls) ([9]; c-Src): 97.5%
remaining activity at 10 µM [9, 27]: 98.7%
% Enzyme Activity (relative to DMSO controls) ([10]; PDK4/PDKH4): 96.17%
remaining activity at 10 µM [10, 28]: 96.5%
% Enzyme Activity (relative to DMSO controls) [20]: 75.57%
remaining activity at 10 µM ([20]; read-out: % Enzyme Activity (relative to DMSO controls)): 79.6%
% Enzyme Activity (relative to DMSO controls) ([11]; BLK): 107.96%
remaining activity at 10 µM [11, 29]: 108%
% Enzyme Activity (relative to DMSO controls) ([12]; TRKA): 99.91%
remaining activity at 10 µM [12, 30]: 105%
% Enzyme Activity (relative to DMSO controls) ([13]; PASK): 105.18%
remaining activity at 10 µM [13, 31]: 100%
number of off-target kinases experimentally identified, In vitro binding (KinomeSCAN) [14]: 0
% Enzyme Activity (relative to DMSO controls) ([15]; ABL2/ARG): 104.31%
remaining activity at 10 µM [15, 32]: 105%
pActivity, HSP90AB1 [16]: 6.99
% Enzyme Activity (relative to DMSO controls) ([17]; FGR): 101.62%
remaining activity at 10 µM [17, 33]: 102%
% Enzyme Activity (relative to DMSO controls) ([18]; FYN): 106.38%
remaining activity at 10 µM [18, 34]: 108%
% Enzyme Activity (relative to DMSO controls) ([19]; YES/YES1): 99.53%
remaining activity at 10 µM [19, 35]: 99.6%

From paper PMC8550792, “Evolution of kinase polypharmacology across HSP90 drug discovery” (Cell Chemical Biology, 2021)
